Among the data in patent US20220313835A1, “AMINOQUINOLINE COMPOUNDS, IMMUNOCONJUGATES, AND USES THEREOF” (BOLT BIOTHERAPEUTICS, INC., priority 2019, published 2022) are EC50 values, retold here.

Broadly, the pEC50 is the EC50 on a negative log10 scale, so that one unit is a factor of ten.

One test has as its target T1, human TLR7 (Homo sapiens, UniProt Q9NYK1).
T1 construct: host or cells: HEK293 NF-kB reporter cells
T1 sequence (Q9NYK1 27-1049): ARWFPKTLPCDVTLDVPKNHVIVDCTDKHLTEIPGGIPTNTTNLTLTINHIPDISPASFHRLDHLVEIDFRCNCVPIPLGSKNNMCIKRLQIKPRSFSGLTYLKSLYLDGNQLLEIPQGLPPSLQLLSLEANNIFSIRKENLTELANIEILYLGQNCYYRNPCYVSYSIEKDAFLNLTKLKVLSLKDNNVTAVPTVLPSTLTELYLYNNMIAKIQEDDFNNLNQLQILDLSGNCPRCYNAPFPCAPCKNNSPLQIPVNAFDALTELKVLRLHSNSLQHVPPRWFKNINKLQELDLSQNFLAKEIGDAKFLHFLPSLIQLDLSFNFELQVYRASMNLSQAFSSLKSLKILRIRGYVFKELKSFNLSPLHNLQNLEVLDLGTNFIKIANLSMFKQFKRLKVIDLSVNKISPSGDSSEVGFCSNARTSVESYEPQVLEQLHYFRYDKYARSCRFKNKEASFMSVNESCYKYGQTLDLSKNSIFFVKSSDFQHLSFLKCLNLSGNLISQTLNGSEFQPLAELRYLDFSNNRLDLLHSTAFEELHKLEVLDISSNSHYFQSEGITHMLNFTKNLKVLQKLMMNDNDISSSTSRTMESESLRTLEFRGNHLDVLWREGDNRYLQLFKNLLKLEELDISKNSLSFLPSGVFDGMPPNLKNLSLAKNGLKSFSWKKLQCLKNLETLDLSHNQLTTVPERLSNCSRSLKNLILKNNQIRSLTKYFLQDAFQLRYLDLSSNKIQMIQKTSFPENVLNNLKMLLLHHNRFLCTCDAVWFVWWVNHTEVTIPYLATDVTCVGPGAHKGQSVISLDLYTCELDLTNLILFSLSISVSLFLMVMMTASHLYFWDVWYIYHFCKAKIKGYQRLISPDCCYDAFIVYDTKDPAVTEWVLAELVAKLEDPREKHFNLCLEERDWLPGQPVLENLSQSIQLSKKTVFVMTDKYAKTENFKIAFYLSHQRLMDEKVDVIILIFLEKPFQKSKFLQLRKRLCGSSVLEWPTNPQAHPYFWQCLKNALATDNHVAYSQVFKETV
The test is described as follows: HEK Reporter Assay, HEK293 NFKB reporter cells expressing human TLR7. It is filed as cell-based. To be noted: read-out: HEK-293 hTLR7 EC50. Here is the method: (§1) Each compound was characterized by mass spectrometry and shown to have the mass indicated. Activity against HEK293 NFKB reporter cells expressing human TLR7 or human TLR8 was measured according to Example 31.
(§2) HEK293 reporter cells expressing human TLR7 or human TLR8 were purchased from Invivogen and vendor protocols were followed for cellular propagation and experimentation. Briefly, cells were grown to 80-85% confluence at 5% CO2 in DMEM supplemented with 10% FBS, Zeocin, and Blasticidin. Cells were then seeded in 96-well flat plates at 4×10^4 cells/well with substrate containing HEK detection medium and immunostimulatory molecules. Activity was measured using a plate reader at 620-655 nm wavelength.
A general note: A reporter such as luciferase makes a cellular process visible.

The target of another test is T2, human TLR8 (Homo sapiens, UniProt Q9NR97).
T2 construct: host or cells: HEK293 NF-kB reporter cells
T2 sequence (Q9NR97 27-1041): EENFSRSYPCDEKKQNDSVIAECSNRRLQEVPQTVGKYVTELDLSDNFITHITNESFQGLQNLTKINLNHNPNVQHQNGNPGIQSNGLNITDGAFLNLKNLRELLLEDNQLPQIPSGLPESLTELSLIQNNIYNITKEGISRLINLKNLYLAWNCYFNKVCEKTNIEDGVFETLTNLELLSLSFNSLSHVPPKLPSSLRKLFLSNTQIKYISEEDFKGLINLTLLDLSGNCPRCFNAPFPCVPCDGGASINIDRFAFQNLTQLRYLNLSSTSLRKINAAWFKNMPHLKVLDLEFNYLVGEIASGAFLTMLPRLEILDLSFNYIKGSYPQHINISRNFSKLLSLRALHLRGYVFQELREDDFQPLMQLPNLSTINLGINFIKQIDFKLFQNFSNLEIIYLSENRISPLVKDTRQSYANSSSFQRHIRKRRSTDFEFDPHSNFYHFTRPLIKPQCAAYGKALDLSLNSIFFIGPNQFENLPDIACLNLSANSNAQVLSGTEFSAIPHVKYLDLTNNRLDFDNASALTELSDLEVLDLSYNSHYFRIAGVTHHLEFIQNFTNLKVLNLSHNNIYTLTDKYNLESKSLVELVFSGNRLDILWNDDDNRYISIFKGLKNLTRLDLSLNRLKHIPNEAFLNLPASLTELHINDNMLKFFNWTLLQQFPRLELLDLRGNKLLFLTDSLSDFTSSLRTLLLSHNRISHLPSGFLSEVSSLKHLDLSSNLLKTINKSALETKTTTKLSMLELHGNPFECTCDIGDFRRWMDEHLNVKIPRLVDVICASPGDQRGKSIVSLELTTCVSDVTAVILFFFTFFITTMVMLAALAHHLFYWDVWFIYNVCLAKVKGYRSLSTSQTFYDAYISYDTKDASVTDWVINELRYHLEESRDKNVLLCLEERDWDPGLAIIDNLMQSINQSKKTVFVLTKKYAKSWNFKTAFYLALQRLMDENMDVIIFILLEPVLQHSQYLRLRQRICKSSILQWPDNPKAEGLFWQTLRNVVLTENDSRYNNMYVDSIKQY
The test is described as follows: HEK Reporter Assay, HEK293 NFKB reporter cells expressing human TLR8. The test is classed as cell-based. To be noted: read-out: HEK-293 hTLR8 EC50. Here is the method:
as §1, §2

Molecules are shown by their SMILES. pEC50: −log10 of the molar value. Where only a bound is given, the exact number is not on record here.

As to `CCCCCc1cc2c(CCCCCNC(C)=O)cccc2nc1N` [AQ-1, N-(5-(2-amino-3-pentylquinolin-5-yl)pentyl)acetamide], the values for the pEC50 at human TLR7 and at human TLR8 were 6.60 and less than 5.05, respectively.
For `CCCCCc1cc2c(CCCCCNC(=O)Nc3cccc(C#N)c3)cccc2nc1N` [AQ-2, 1-(5-(2-amino-3-pentylquinolin-5-yl)pentyl)-3-(3-cyanophenyl)urea], the negative logarithm of the EC50 (pEC50) at human TLR7 and at human TLR8 was less than 5.05 each time.
For the compound `CCCCCc1cc2c(CCCCCNC(=O)OC(C)(C)C)cccc2nc1N` [AQ-3, tert-butyl (5-(2-amino-3-pentylquinolin-5-yl)pentyl)carbamate], the pEC50 on human TLR7 and at human TLR8 was less than 5.05 each time.
On to `CCCCCc1cc2c(CCCCCNC=O)cccc2nc1N` [AQ-4, N-(5-(2-amino-3-pentylquinolin-5-yl)pentyl)formamide], for which the pEC50 at human TLR7 and at human TLR8 was less than 5.05 in each case.
With `CCCCCc1cc2ccc(-c3cccc(S(=O)(=O)N4CC(CO)C4)c3)cc2nc1N` [AQ-5, (1-((3-(2-amino-3-pentylquinolin-7-yl)phenyl)sulfonyl)azetidin-3-yl)methanol], the results for the pEC50 at human TLR7 and at human TLR8 were less than 5.05 and 6.25, respectively.
Consider `CCCN(CCC)C(=O)c1cc2ccccc2nc1N` [AQ-6, 2-amino-N,N-dipropylquinoline-3-carboxamide], for which the pEC50 on human TLR7 and at human TLR8 was less than 5.05 throughout.
For `CCCN(CCC)C(=O)c1cc2c(CCCCCN)cccc2nc1N` [AQ-7, 2-amino-5-(5-aminopentyl)-N,N-dipropylquinoline-3-carboxamide], the pEC50 on human TLR7 and at human TLR8 was less than 5.05 in each case.
On to `CCCCCc1cc2c(CCCCCN(C)C)cccc2nc1N` [AQ-8, 5-(5-(dimethylamino)pentyl)-3-pentylquinolin-2-amine], for which the pEC50 was less than 5.05 on human TLR7 and 5.99 at human TLR8.
For `CCCCCc1cc2ccc(C(=O)Nc3ccc(N4CCC(C(=O)NCCNC(=O)OC(C)(C)C)CC4)nc3)cc2nc1N` [AQ-10, tert-butyl N-[2-[[1-[5-[(2-amino-3-pentyl-quinoline-7-carbonyl)amino]-2-pyridyl]piperidine-4-carbonyl]amino]ethyl]carbamate], in that order: less than 5.05 and less than 5.05.
On to `CCCCCc1cc2ccc(-c3cccc(S(=O)(=O)N4CC(CNC(=O)OC(C)(C)C)C4)c3)cc2nc1N` [AQ-11, tert-butylN-[[1-[3-(2-amino-3-pentyl-7-quinolyl)phenyl]sulfonylazetidin-3-yl]methyl] carbamate], for which the pEC50 at human TLR7 and at human TLR8 was less than 5.05 throughout.
On to `CCCCCc1cc2ccc(-c3cccc(S(=O)(=O)N4CC(CN)C4)c3)cc2nc1N` [AQ-12, 7-[3-[3-(aminomethyl)azetidin-1-yl]sulfonylphenyl]-3-pentyl-quinolin-2-amine], for which the pEC50 at human TLR7 is less than 5.05; on human TLR8, 5.83.
For the compound `CCCCCc1cc2c(CCCCCN)cc(-c3cccc(S(=O)(=O)N4CC(CO)C4)c3)cc2nc1N` [AQ-13, [1-[3-[2-amino-5-(5-aminopentyl)-3-pentyl-7-quinolyl]phenyl]sulfonylazetidin-3-yl]methanol], the pEC50 on human TLR7 and on human TLR8 was less than 5.05 each time.
Take `CCCCCc1cc2ccc(C(=O)Nc3ccc(N4CCC(C(=O)NCCN)CC4)nc3)cc2nc1N` [AQ-14, 2-amino-N-(6-(4-((2-aminoethyl)carbamoyl)piperidin-1-yl)pyridin-3-yl)-3-pentylquinoline-7-carboxamide]: the pEC50 at human TLR7 and on human TLR8 was less than 5.05 each time.
As to `CCCCCc1cc2c(CC3CCCN3C)cc(-c3cccc(S(=O)(=O)N4CC(CO)C4)c3)cc2nc1N` (stereo not shown) [AQ-15, [1-[3-[2-amino-5-[(1-methylpyrrolidin-2-yl)methyl]-3-pentyl-7-quinolyl]phenyl]sulfonylazetidin-3-yl]methanol], the figures for the pEC50 on human TLR7 and at human TLR8 were less than 5.05 and 5.61, respectively.
For `CCCCCc1cc2c(C#CCCCNC(=O)OC(C)(C)C)cc(-c3cccc(S(=O)(=O)N4CC(CO)C4)c3)cc2nc1N` [AQ-16, tert-butyl N-[5-[2-amino-7-[3-[3-(hydroxymethyl)azetidin-1-yl]sulfonylphenyl]-3-pentyl-5-quinolyl]pent-4-ynyl]carbamate], in that order: less than 5.05 and less than 5.05.
In the case of `CCCCCc1cc2ccc(-c3cccc(S(=O)(=O)N4CC(CN/C(=N\CCOC)Nc5cccc(C#N)c5)C4)c3)cc2nc1N` [AQ-17, 1-((1-((3-(2-amino-3-pentylquinolin-7-yl)phenyl)sulfonyl)azetidin-3-yl)methyl)-3-(3-cyanophenyl)-2-(2-methoxyethyl)guanidine], the pEC50 at human TLR7 and on human TLR8 was less than 5.05 each time.
As for `CCCCCc1cc2c(CCCCCN/C(=N\c3cccc(C#N)c3)NCCOC)cccc2nc1N` [AQ-18, 1-(5-(2-amino-3-pentylquinolin-5-yl)pentyl)-3-(3-cyanophenyl)-2-(2-methoxyethyl)guanidine], the pEC50 on human TLR7 and at human TLR8 was less than 5.05 in each case.
